# Laboratory results: ChEMBL document CHEMBL5357006, “Pestanoid A, a Rearranged Pimarane Diterpenoid Osteoclastogenesis Inhibitor from a Marine Mesophotic Zone Chalinidae Sponge-Associated Fungus, Pestalotiopsis sp. NBUF145” (J Nat Prod, 2024)
# pIC50: −log10 of the molar value. Active and inactive are the calls of the source. The calls are words filed in the database; no cut-off is given here.
# What was measured:
# Monocyte [1] = assay: Anti-osteoclastogensis in C57BL/6 mouse bone marrow monocytes assessed as inhibition of RANKL/M-CSF induced osteoclastogenesis at 10 uM incubated for 5 days relative to control; type: functional; conditions: C57BL/6, Monocyte, 120 h, time 5 day
# Monocyte [2] = assay: Anti-osteoclastogensis in C57BL/6 mouse bone marrow monocytes assessed as inhibition of RANKL/M-CSF induced osteoclastogenesis at 10 uM incubated for 5 days; type: functional, cell-based; conditions: C57BL/6, Monocyte, 120 h
# [3] = Cytotoxicity against C57BL/6 mouse bone marrow monocytes assessed as reduction in cell viability incubated for 48 hrs by MTT assay; type: toxicity, cell-based, Monocyte
# [4] = Selectivity index, ratio of CC50 for cytotoxicity against C57BL/6 mouse bone marrow monocytes to IC50 for anti-osteoclastogensis in C57BL/6 mouse bone marrow monocytes assessed as inhibition of RANKL/M-CSF induced osteoclastogenesis; type: cell-based, Monocyte; conditions: read-out: Ratio CC50/IC50
# RAW264.7 [5] = assay: Inhibition of RANKL-induced MAPK signaling in mouse RAW264.7 cells assessed as inhibition of ERK1/2 phosphorylation incubated for 60 mins in presence of RANKL by Western blot analysis; type: cell-based; conditions: dose 5-10 µM
# RAW264.7 [6] = assay: Inhibition of RANKL-induced MAPK signaling in mouse RAW264.7 cells assessed as inhibition of JNK1/2 phosphorylation incubated for 60 mins in presence of RANKL by Western blot analysis; type: cell-based; conditions: dose 5-10 µM
# RAW264.7 [7] = assay: Inhibition of RANKL-induced MAPK signaling in mouse RAW264.7 cells assessed as inhibition of p38 phosphorylation incubated for 60 mins in presence of RANKL by Western blot analysis; type: cell-based; conditions: dose 5-10 µM
# RAW264.7 [8] = assay: Inhibition of RANKL-induced NFkappaB signaling in mouse RAW264.7 cells assessed as inhibition of NFkappab nuclear translocation at 10 uM incubated for 60 mins in presence of RANKL by Western blot analysis; type: cell-based
Compound,inhibition at 10 µM (Monocyte [1]),pIC50 (Monocyte [2]),CC50 at 48 h [3],selectivity ratio [4],inhibition (RAW264.7 [5]),inhibition (RAW264.7 [6]),inhibition (RAW264.7 [7]),inhibition (RAW264.7 [8])
C=C1CC[C@@H]2OC(=O)C=C(C[C@]3(C)CC(=O)O[C@H]3CO)C(=O)[C@]2(C)[C@@H]1C,75%,5.38,> 30 µM,> 7,Dose-Dependent Effect,Dose-Dependent Effect,Dose-Dependent Effect,Active
C=C[C@@]1(C)CC(=O)O[C@H]1C1=CC[C@H]2C(C)(C)CC[C@H](O)[C@]2(C)C1=O,88.4%,5.52,> 30 µM,> 10,Dose-Dependent Effect,Dose-Dependent Effect,Dose-Dependent Effect,Active
